The text below walks through data of patent US20250206732A1, “COMPOUNDS AND METHODS FOR THE TARGETED DEGRADATION OF KRAS” (Arvinas Operations, Inc., priority 2022, published 2025).

The target of this assay is T1, AsPC-1 HiBiT-KRASG12D (Homo sapiens, UniProt P01116, G12D).
T1 construct: insert the HiBiT tag onto the N-terminus of one or more of the endogenous KRAS alleles; endogenous in cells; host or cells: AsPC-1 (ATCC CRL-1682), CRISPR-Cas9 knock-in clone, one tagged allele
The assay can be described thus: HiBiT degradation assay (G12D), AsPC-1 HiBiT-KRASG12D cells. In kind it is cell-based. The following applies: 24 hours treatment; for Dmax: ASPC1, AsPC-1 HiBiT-KRASG12D cells, maximum degradation observed; for DC50: AsPC-1 HiBiT-KRASG12D cells, HiBiT luminescence. An excerpt:
Reagents. […] SW1573 cells are homozygous for the G12C mutation in KRAS, AsPC-1 cells are homozygous for the G12D mutation, and SW620 cells are homozygous for the G12V mutation. […] For degradation assays, 384 well plates were used. Alamar blue was purchased from ThermoFisher scientific (A50101) and used according to manufacturer instructions. The Nano-Glo® HiBiT Lytic Detection System and Nano-Glo® HiBiT Blotting System were purchased from Promega (#N3050 and #N2410) and used according to manufacturer instructions.
To create the AsPC-1 HiBiT-KRASG12D cell line, CRISPR-Cas9 was used to insert the HiBiT tag onto the N-terminus of one or more of the endogenous KRAS alleles. […] After knock-in of the tag, individual clones were isolated by single cell dilution and screened for HiBiT insertion by PCR. […] This clone was used in further studies.
HiBiT degradation assays (G12C and G12D). […] All assays were performed in triplicate. Cells were treated with compounds for 24 hours at 37° C. in an incubator containing 5% CO2. Following treatment, alamar blue was used to determine if any compounds led to a loss in cell viability after 24 hours. The 10× alamar blue reagent was added to a final concentration of 1× as recommended by the manufacturer and cells were returned to the incubator for 4 hours. Plates were then allowed to equilibrate to room temperature and fluorescence was measured using a Perkin-Elmer EnVision. After completion of the fluorescence read, the liquid from each well was removed and the cells were washed with PBS. The Nano-Glo® HiBiT detection reagent was prepared according to the manufacturer's instructions and added to each well after the PBS wash was removed. Following incubation at room temperature for 45 minutes, the luminescence was read using the ultra-sensitive luminescence aperture on the Envision instrument.
Data analysis. Fluorescence values from the alamar blue treatment were normalized to the DMSO-only control for each compound titration.
A general note: With HiBiT, luminescence reflects the tagged protein that the partner subunit can reach.

T1 sequence (P01116 1-188 isoform P01116-2 G12D): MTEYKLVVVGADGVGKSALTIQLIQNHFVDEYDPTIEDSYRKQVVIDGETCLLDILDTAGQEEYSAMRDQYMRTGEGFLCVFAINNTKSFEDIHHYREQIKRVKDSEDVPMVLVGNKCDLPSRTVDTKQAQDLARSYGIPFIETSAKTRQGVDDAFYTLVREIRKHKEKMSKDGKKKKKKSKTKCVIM

As a reminder, the Dmax is the greatest extent of degradation seen. As usually defined, the DC50 is the midpoint of the concentration-degradation curve. A lower DC50 goes with a more potent degrader. On to `CCc1cccc2cc(O)cc(-c3ncc4c(N5CC6CCC(C5)N6)nc(OCCN5CCC(CN6CCN(c7cnc(C(=O)N[C@H](C(=O)N8C[C@H](O)C[C@H]8C(=O)N[C@@H](C)c8ccc(-c9scnc9C)cc8)C(C)(C)C)cn7)CC6)CC5)nc4c3F)c12` [Compound 293], for which the Dmax fell in the range of 60 to 80% and the DC50 is < 600 nM.

For `CCc1cccc2cc(O)cc(-c3ncc4c(N5CC6CCC(C5)N6)nc(OCCN5CCC6(CC5)CC(Oc5cc([C@H](C(=O)N7C[C@H](O)C[C@H]7C(=O)N[C@@H](C)c7ccc(-c8scnc8C)cc7)C(C)C)on5)C6)nc4c3F)c12` [Compound 231], the Dmax was in the range of 80 to 100% and the DC50 is < 600 nM.

Take `CCc1cccc2cc(O)cc(-c3ncc4c(N5CC6CCC(C5)N6)nc(OCCN5CCC6(CC5)CN(c5cc([C@@H](C(=O)N7C[C@H](O)C[C@H]7C(=O)NCc7ccc(-c8scnc8C)cc7)C(C)C)on5)C6)nc4c3F)c12` (relative stereo) [Compound 99, (2S,4R)-1-[(2R*)-2-[3-(7-{2-[(4-{3,8-diazabicyclo[3.2.1]octan-3-yl}-7-(8-ethyl-3-hydroxynaphthalen-1-yl)-8-fluoropyrido[4,3-d]pyrimidin-2-yl)oxy]ethyl}-2,7-diazaspiro[3.5]nonan-2-yl)-1,2-oxazol-5-yl]-3-methylbutanoyl]-4-hydroxy-N-{[4-(4-methyl-1,3-thiazol-5-yl)phenyl]methyl}pyrrolidine-2-carboxamide]: the Dmax lay within 20 to 60% and the DC50 was > 3000 nM.

`Cc1ncsc1-c1ccc([C@H](C)NC(=O)[C@@H]2C[C@@H](O)CN2C(=O)[C@H](c2cc(OC3CN(C(=O)OC[C@@H]4CC[C@@]5(COc6nc(N7CC8CCC(C7)N8)c7cnc(-c8cc(O)cc(Cl)c8C8CC8)c(F)c7n6)CCCN45)C3)no2)C(C)C)cc1` [Compound 322] displayed a Dmax of 60 to 80% and a DC50 of 600 to 1000 nM.

In the case of `CCc1cccc2cccc(-c3ncc4c(N5CC6CCC(C5)N6)nc(OC[C@@]56CCCN5[C@H](COc5cc([C@@H](C(=O)N7C[C@H](O)C[C@H]7C(=O)N[C@@H](C)c7ccc(-c8scnc8C)cc7)C(C)C)on5)CC6)nc4c3F)c12` [Compound 55, (2S,4R)-1-[(2S)-2-(3-{[(3S,7aS)-7a-{[(4-{3,8-diazabicyclo[3.2.1]octan-3-yl}-7-(8-ethylnaphthalen-1-yl)-8-fluoropyrido[4,3-d]pyrimidin-2-yl)oxy]methyl}-hexahydro-1H-pyrrolizin-3-yl]methoxy}-1,2-oxazol-5-yl)-3-methylbutanoyl]-4-hydroxy-N-[(1S)-1-[4-(4-methyl-1,3-thiazol-5-yl)phenyl]ethyl]pyrrolidine-2-carboxamide], the DC50 was > 3000 nM.

Compound `CCc1cccc2cc(O)cc(-c3ncc4c(N5CC6CCC(C5)N6)nc(OCCN5CCC(CC6CCN(c7cc([C@@H](C(=O)N8C[C@H](O)C[C@H]8C(=O)N[C@@H](C)c8ccc(-c9ccnn9C)cc8)C(C)C)on7)CC6)CC5)nc4c3F)c12` [Compound 210, (2S,4R)-1-[(2S)-2-(3-{4-[(1-{2-[(4-{3,8-diazabicyclo[3.2.1]octan-3-yl}-7-(8-ethyl-3-hydroxynaphthalen-1-yl)-8-fluoropyrido[4,3-d]pyrimidin-2-yl)oxy]ethyl}piperidin-4-yl)methyl]piperidin-1-yl}-1,2-oxazol-5-yl)-3-methylbutanoyl]-4-hydroxy-N-[(1S)-1-[4-(1-methyl-1H-pyrazol-5-yl)phenyl]ethyl]pyrrolidine-2-carboxamide] returned a Dmax of 20 to 60% and a DC50 of 600 to 1000 nM.
